In ChEMBL document CHEMBL4715849, “Recent Progress in the Discovery of Antifungal Agents Targeting the Cell Wall” (J Med Chem, 2020):
pIC50: −log10 of the molar value. ≈ marks a conversion by molar mass, not a printed value. Blank lines part the entries; values can stand above or below the molecule they belong to. Square brackets hold non-standard residues; d marks the D form. Peptide text beside a SMILES is read from it. * marks the point of attachment. Fumaryl(OMe) = COC(=O)/C=C/C(=O)*; Dap = NC[C@H](N)C(=O)O

Tests used:
Candida albicans [1] = experiment: Antifungal activity against Candida albicans AMB-25 incubated for 48 hrs by serial two-fold dilution method; format: functional
Candida albicans [2] = experiment: Antifungal activity against Candida albicans ATCC 262 incubated for 24 hrs by turbidimetric method; format: functional
Candida albicans [3] = experiment: Antifungal activity against Candida albicans incubated for 24 hrs by turbidimetric method; format: functional
Pichia kudriavzevii = experiment: Antifungal activity against Candida krusei K1153 by agar incorporation method; format: functional
Candida parapsilosis [4] = experiment: Antifungal activity against Candida parapsilosis K1154 by agar incorporation method; format: functional; details: Lodderomyces parapsilosis
Candida tropicalis [5] = experiment: Antifungal activity against Candida tropicalis K1155 by agar incorporation method; format: functional
Candida albicans [6] = experiment: Antifungal activity against Candida albicans K1133 by agar incorporation method; format: functional
Candida albicans [7] = experiment: Antifungal activity against Candida albicans K341 by agar incorporation method; format: functional
Candida albicans [8] = experiment: Antifungal activity against Candida albicans K335 by agar incorporation method; format: functional
Cyberlindnera jadinii = experiment: Antifungal activity against Candida utilis K482 by agar incorporation method; format: functional; details: Williopsis jadinii
Candida parapsilosis [9] = experiment: Antifungal activity against Candida parapsilosis K332 by agar incorporation method; format: functional; details: Lodderomyces parapsilosis
[10] = test system: Meyerozyma guilliermondii; experiment: Antifungal activity against Candida guilliermondii K334 by agar incorporation method; format: functional
Candida tropicalis [11] = experiment: Antifungal activity against Candida tropicalis K337 by agar incorporation method; format: functional
Candida albicans [12] = experiment: Antifungal activity against Candida albicans K1082 by agar incorporation method; format: functional
[13] = Inhibition of Candida albicans IFO1060 1,3-beta-D-glucan synthase

Structure (SMILES): COC(=O)/C=C/C(=O)NC[C@H](NC(=O)[C@H](N)Cc1ccccc1)C(=O)O
- MIC (Candida albicans [1]): 0.4 µg/mL (≈ 1.1 µM)

Structure (SMILES): CCCCC/C=C/C=C/C(=O)OC[C@H]1O[C@@H](O[C@H]2[C@H](OC(=O)/C=C/C=C/C[C@H](O)/C(C)=C/C=C/CC[C@@H](C)CC)[C@@H](O)[C@@]3(OCc4cc(O)cc(O)c43)O[C@@H]2CO)[C@H](O)[C@@H](O)[C@H]1O
- MIC (Pichia kudriavzevii): 0.1 µg/mL (≈ 0.113 µM)
- MIC (Candida parapsilosis [4]): 0.1 µg/mL (≈ 0.113 µM)
- MIC (Candida tropicalis [5]): 0.1 µg/mL (≈ 0.113 µM)
- MIC (Candida albicans [6]): 0.1 µg/mL (≈ 0.113 µM)
- MIC (Candida albicans [7]): 0.1 µg/mL (≈ 0.113 µM)
- MIC (Candida albicans [8]): 0.1 µg/mL (≈ 0.113 µM)
- MIC (Cyberlindnera jadinii): 0.1 µg/mL (≈ 0.113 µM)
- MIC (Candida parapsilosis [9]): 0.1 µg/mL (≈ 0.113 µM)
- MIC [10]: 0.1 µg/mL (≈ 0.113 µM)
- MIC (Candida tropicalis [11]): 0.1 µg/mL (≈ 0.113 µM)
- MIC (Candida albicans [12]): 0.1 µg/mL (≈ 0.113 µM)

Structure (SMILES): CC[C@H](C)CC/C=C/C=C(\C)[C@@H](O)C/C=C/C=C/C(=O)O[C@H]1[C@H](O)[C@@H](CO)O[C@]2(OCc3cc(O)cc(O)c32)[C@@H]1O
- MIC (Pichia kudriavzevii): 0.1 µg/mL (≈ 0.174 µM)
- MIC (Candida parapsilosis [4]): 0.1 µg/mL (≈ 0.174 µM)
- MIC (Candida tropicalis [5]): 0.1 µg/mL (≈ 0.174 µM)
- MIC (Candida albicans [6]): 0.1 µg/mL (≈ 0.174 µM)
- MIC (Candida albicans [7]): 0.1 µg/mL (≈ 0.174 µM)
- MIC (Candida albicans [8]): 0.1 µg/mL (≈ 0.174 µM)
- MIC (Cyberlindnera jadinii): 0.1 µg/mL (≈ 0.174 µM)
- MIC (Candida parapsilosis [9]): 0.1 µg/mL (≈ 0.174 µM)
- MIC [10]: 0.1 µg/mL (≈ 0.174 µM)
- MIC (Candida tropicalis [11]): 0.1 µg/mL (≈ 0.174 µM)
- MIC (Candida albicans [12]): 0.1 µg/mL (≈ 0.174 µM)

Structure (SMILES): COC(=O)/C=C/C(=O)NC[C@H](NC(=O)CN)C(=O)O
- MIC (Candida albicans [1]): 0.4 µg/mL (≈ 1.46 µM)

Structure (SMILES): CCCCCCCCCCCCC[C@H]1OC(=O)[C@H](CCCN(CCN)CCN)NC(=O)[C@@H]([C@@H](C)O)NC(=O)CNC(=O)[C@H]([C@H](O)CC(N)=O)NC(=O)[C@H]2[C@@H](O)CCN2C(=O)[C@H]([C@@H](C)O)NC(=O)[C@@H]2C[C@@H](O)CN2C(=O)[C@H](C(C)C)NC(=O)[C@H](Cc2ccc(O)cc2)NC(=O)[C@@H](C)NC(=O)[C@H]([C@@H](C)O)NC1=O
- pIC50 [13]: 8.70

Structure (SMILES): COC(=O)/C=C/C(=O)NC[C@H](N)C(=O)N[C@H](C(=O)O)C(C)C
- MIC (Candida albicans [1]): 0.4 µg/mL (≈ 1.27 µM)

Structure (SMILES): COC(=O)/C=C/C(=O)NC[C@H](N)C(=O)N[C@@H](C)C(=O)O
- MIC (Candida albicans [1]): 0.4 µg/mL (≈ 1.39 µM)

Structure (SMILES): COC(=O)/C=C/C(=O)NC[C@H](NC(=O)[C@H](CCSC)NC(=O)[C@@H](N)CCSC)C(N)=O
- MIC (Candida albicans [2]): 0.025 µg/mL (≈ 0.0523 µM)
- MIC (Candida albicans [3]): 0.025 µg/mL (≈ 0.0523 µM)

Structure (SMILES): COC(=O)/C=C/C(=O)NC[C@H](NC(=O)[C@H](CCSC)NC(=O)[C@H](CCSC)NC(=O)[C@H](CCSC)NC(=O)[C@@H](N)CCSC)C(=O)O (H-MMMM[Dap](Fumaryl(OMe))-OH)
- MIC (Candida albicans [2]): 0.025 µg/mL (≈ 0.0337 µM)
- MIC (Candida albicans [3]): 0.025 µg/mL (≈ 0.0337 µM)

Structure (SMILES): COC(=O)/C=C/C(=O)NC[C@H](NC(=O)[C@H](CCSC)NC(=O)[C@H](CCSC)NC(=O)[C@@H](N)CNC(=O)/C=C/C(=O)OC)C(=O)O (H-[Dap](Fumaryl(OMe))MM[Dap](Fumaryl(OMe))-OH)
- MIC (Candida albicans [2]): 0.025 µg/mL (≈ 0.0369 µM)
- MIC (Candida albicans [3]): 0.025 µg/mL (≈ 0.0369 µM)

Further lines, results first:

- MIC (Candida albicans [1]): 0.4 µg/mL (≈ 1.27 µM)
Structure (SMILES): COC(=O)/C=C/C(=O)NC[C@H](NC(=O)[C@H](N)C(C)C)C(=O)O

- MIC (Candida albicans [2]): 0.025 µg/mL (≈ 0.0522 µM)
- MIC (Candida albicans [3]): 0.025 µg/mL (≈ 0.0522 µM)
Structure (SMILES): COC(=O)/C=C/C(=O)NC[C@H](NC(=O)[C@@H](N)CCSC)C(=O)N[C@@H](CCSC)C(=O)O

- MIC (Candida albicans [2]): 0.025 µg/mL (≈ 0.0599 µM)
- MIC (Candida albicans [3]): 0.025 µg/mL (≈ 0.0599 µM)
Structure (SMILES): COC(=O)/C=C/C(=O)NC[C@H](NC(=O)[C@H](C)NC(=O)[C@@H](N)CCSC)C(N)=O

- MIC (Candida albicans [1]): 0.4 µg/mL (≈ 1.15 µM)
Structure (SMILES): COC(=O)/C=C/C(=O)NC[C@H](NC(=O)[C@H](N)CCSC)C(=O)O

- MIC (Candida albicans [2]): 0.025 µg/mL (≈ 0.0561 µM)
- MIC (Candida albicans [3]): 0.025 µg/mL (≈ 0.0561 µM)
Structure (SMILES): CCCC(NC(=O)[C@@H](N)CCSC)C(=O)N[C@@H](CNC(=O)/C=C/C(=O)OC)C(N)=O (some centres undefined)

- MIC (Candida albicans [1]): 0.4 µg/mL (≈ 1.27 µM)
Structure (SMILES): CCCC(NC(=O)[C@@H](N)CNC(=O)/C=C/C(=O)OC)C(=O)O (some centres undefined)

- MIC (Candida albicans [1]): 0.4 µg/mL (≈ 1.39 µM)
Structure (SMILES): COC(=O)/C=C/C(=O)NC[C@H](NC(=O)[C@@H](C)N)C(=O)O

- MIC (Candida albicans [1]): 0.4 µg/mL (≈ 1.21 µM)
Structure (SMILES): COC(=O)/C=C/C(=O)NC[C@H](NC(=O)[C@H](N)CC(C)C)C(=O)O
